Calls of active or inactive are those of the source.

In assay [1] the target is T1, Sentrin-specific protease 6 (Homo sapiens, UniProt Q9GZR1).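 Further: Luminescence-based dose-response confirmatory assay of SENP6 inhibition, following up an ultra-high-throughput screen.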
T1 sequence (Q9GZR1 whole entry): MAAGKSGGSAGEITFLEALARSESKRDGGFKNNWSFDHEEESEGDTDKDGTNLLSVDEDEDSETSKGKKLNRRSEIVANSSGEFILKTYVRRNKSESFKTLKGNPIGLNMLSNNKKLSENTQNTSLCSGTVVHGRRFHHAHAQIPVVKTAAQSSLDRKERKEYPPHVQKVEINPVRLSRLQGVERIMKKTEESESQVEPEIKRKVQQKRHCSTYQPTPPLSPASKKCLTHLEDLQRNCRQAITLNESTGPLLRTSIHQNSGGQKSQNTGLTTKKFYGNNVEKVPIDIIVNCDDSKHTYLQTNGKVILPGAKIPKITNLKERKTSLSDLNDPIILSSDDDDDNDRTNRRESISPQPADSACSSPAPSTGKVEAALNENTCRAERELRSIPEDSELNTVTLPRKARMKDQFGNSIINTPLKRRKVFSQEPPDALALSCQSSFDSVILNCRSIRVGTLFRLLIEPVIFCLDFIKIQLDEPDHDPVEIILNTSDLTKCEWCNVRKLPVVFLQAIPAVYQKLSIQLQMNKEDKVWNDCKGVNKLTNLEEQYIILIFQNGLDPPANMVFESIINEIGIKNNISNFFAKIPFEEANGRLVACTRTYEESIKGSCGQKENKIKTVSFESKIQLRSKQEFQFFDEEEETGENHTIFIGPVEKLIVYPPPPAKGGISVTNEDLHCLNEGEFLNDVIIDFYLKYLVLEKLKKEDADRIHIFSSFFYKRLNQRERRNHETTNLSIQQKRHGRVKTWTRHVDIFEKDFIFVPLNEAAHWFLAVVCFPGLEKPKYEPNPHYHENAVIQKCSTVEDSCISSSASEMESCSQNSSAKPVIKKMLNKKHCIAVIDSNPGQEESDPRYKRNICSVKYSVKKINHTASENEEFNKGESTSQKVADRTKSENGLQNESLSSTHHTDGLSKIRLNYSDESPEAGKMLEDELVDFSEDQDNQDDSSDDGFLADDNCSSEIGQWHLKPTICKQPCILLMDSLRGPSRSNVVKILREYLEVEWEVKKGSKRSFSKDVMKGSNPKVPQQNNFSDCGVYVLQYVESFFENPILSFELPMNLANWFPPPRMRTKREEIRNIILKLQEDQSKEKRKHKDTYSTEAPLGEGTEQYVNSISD
In kind it is functional.

For assay [2], the target named is T2, Tyrosyl-DNA phosphodiesterase 2 (Homo sapiens, UniProt O95551).
T2 sequence (O95551 whole entry): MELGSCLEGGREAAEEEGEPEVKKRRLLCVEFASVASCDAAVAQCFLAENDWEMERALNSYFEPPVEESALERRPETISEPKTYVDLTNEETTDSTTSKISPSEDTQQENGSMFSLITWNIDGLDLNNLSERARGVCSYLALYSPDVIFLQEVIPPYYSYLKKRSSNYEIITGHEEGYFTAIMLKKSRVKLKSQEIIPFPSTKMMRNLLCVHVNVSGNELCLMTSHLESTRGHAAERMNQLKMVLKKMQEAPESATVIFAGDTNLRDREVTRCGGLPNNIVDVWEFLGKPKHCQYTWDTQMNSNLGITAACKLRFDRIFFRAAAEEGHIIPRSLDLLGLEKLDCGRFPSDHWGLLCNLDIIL
Nature of the assay: potency against TDP2 phosphodiesterase activity – biochemical, epi absorbance, IC50, dose response (AID 743297).

Another assay has as its target T3, Caspase-3 (Homo sapiens, UniProt P42574).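 Further: Dose-response selectivity test against caspase-3 for candidate inhibitors of sentrin-specific proteases (SENPs).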
T3 sequence (P42574 whole entry): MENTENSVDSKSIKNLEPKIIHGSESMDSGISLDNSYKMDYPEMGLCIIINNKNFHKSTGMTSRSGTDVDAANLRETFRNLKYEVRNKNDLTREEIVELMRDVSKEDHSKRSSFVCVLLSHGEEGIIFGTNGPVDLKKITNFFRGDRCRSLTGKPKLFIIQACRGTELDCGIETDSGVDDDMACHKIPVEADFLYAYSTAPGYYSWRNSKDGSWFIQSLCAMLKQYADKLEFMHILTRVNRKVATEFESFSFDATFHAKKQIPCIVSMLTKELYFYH
In kind it is functional.

A further assay has as its target T4, Streptokinase A (Streptococcus pyogenes serotype M1, UniProt P10520).
T4 sequence (P10520 whole entry): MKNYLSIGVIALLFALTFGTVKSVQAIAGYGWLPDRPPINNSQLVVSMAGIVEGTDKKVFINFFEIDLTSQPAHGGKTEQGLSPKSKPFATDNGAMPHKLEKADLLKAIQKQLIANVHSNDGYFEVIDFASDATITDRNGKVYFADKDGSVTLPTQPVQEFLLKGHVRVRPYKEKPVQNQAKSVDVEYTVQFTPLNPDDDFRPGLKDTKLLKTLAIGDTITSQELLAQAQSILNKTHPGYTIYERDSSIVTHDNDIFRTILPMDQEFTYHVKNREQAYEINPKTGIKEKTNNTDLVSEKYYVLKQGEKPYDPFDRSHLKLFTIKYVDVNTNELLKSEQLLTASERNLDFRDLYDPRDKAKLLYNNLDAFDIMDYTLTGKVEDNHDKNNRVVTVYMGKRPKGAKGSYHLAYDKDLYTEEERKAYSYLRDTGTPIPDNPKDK
Nature of the assay: viability-normalized secreted streptokinase activity reduction – plasminogen activation absorbance, OD405, dose response (AID 1914).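 Further: secreted streptokinase activity via plasminogen activation per viability signal from cell pellet.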 In kind it is functional, Streptococcus pyogenes M1 GAS.

A word on the IC50: it is the concentration that inhibits the measured activity by half. Consider `NS(=O)(=O)c1ccc(NC(=O)COC(=O)c2ccc([N+](=O)[O-])s2)cc1`, for which the results for the IC50 (in assay [1]; in assay [2]; at Caspase-3) were 4.59 µM (active), 32.2 µM (inactive) and 10.2 µM (active), respectively.

Regarding `CCCCNc1cc(NC(C)=O)cc2cc(OC)c(OC)cc12`, the values for the IC50 (in assay [1]; in assay [2]; on Caspase-3) were 6.78 µM (active), 87.5 µM (inactive) and 20.7 µM (active), respectively.

By EC50 is commonly meant the concentration giving half of the maximal effect. For `COc1ccc(C(NC(=O)C(C)C)c2ccc3cccnc3c2O)cc1` (stereo not drawn), the half-maximal effective concentration (EC50) on Streptokinase A was > 150 µM (not active).

In the case of `O=C(Cc1ccc([N+](=O)[O-])cc1)N/N=C/c1ccc([N+](=O)[O-])o1`, the half-maximal effective concentration (EC50) on Streptokinase A is 37 µM (active).

The record behind these values is ChEMBL document CHEMBL1201862, “PubChem BioAssay data set” (2004).
